Measurements taken from ChEMBL document CHEMBL3046588, “Design, synthesis, and in vitro evaluation of cytotoxic activity of new substituted 1,4-benzoquinones and hydroquinones” (2007).

Tested on: not listed separately
Assay: Cytotoxicity against Homo sapiens (human) colon cancer cells after 48 hr by SRB assay
Format: functional
Conditions: Cancer cell lines

In order of falling GI50:
1. CC(=O)NS(=O)(=O)c1ccc(-n2nc(-c3ccccc3)cc2-c2cc(O)ccc2O)cc1  78.6 µM
2. NS(=O)(=O)c1ccc(-n2nc(-c3ccccc3)cc2-c2cc(O)ccc2O)cc1  75.7 µM
3. CC(=O)NS(=O)(=O)c1ccc(-n2nc(-c3ccc(Cl)cc3)cc2-c2cc(O)ccc2O)cc1  37.6 µM
4. NS(=O)(=O)c1ccc(-n2nc(-c3ccc(Cl)cc3)cc2-c2cc(O)ccc2O)cc1  15.1 µM

In order of rising TGI:
1. NS(=O)(=O)c1ccc(-n2nc(-c3ccc(Cl)cc3)cc2-c2cc(O)ccc2O)cc1  43.1 µM
2. CC(=O)NS(=O)(=O)c1ccc(-n2nc(-c3ccc(Cl)cc3)cc2-c2cc(O)ccc2O)cc1  66.5 µM
3. NS(=O)(=O)c1ccc(-n2nc(-c3ccccc3)cc2-c2cc(O)ccc2O)cc1  100 µM
4. CC(=O)NS(=O)(=O)c1ccc(-n2nc(-c3ccccc3)cc2-c2cc(O)ccc2O)cc1  100 µM

Tested on: not listed separately
Assay: Cytotoxicity against Homo sapiens (human) leukemia cells after 48 hr by SRB assay
Format: functional
Conditions: Leukemia cell

In order of falling GI50:
1. CC(=O)NS(=O)(=O)c1ccc(-n2nc(-c3ccccc3)cc2-c2cc(O)ccc2O)cc1  93.6 µM
2. NS(=O)(=O)c1ccc(-n2nc(-c3ccccc3)cc2-c2cc(O)ccc2O)cc1  49.6 µM
3. CC(=O)NS(=O)(=O)c1ccc(-n2nc(-c3ccc(Cl)cc3)cc2-c2cc(O)ccc2O)cc1  37.4 µM
4. NS(=O)(=O)c1ccc(-n2nc(-c3ccc(Cl)cc3)cc2-c2cc(O)ccc2O)cc1  5.03 µM

In order of rising TGI:
1. NS(=O)(=O)c1ccc(-n2nc(-c3ccc(Cl)cc3)cc2-c2cc(O)ccc2O)cc1  61.4 µM
2. CC(=O)NS(=O)(=O)c1ccc(-n2nc(-c3ccc(Cl)cc3)cc2-c2cc(O)ccc2O)cc1  92.6 µM
3. NS(=O)(=O)c1ccc(-n2nc(-c3ccccc3)cc2-c2cc(O)ccc2O)cc1  100 µM
4. CC(=O)NS(=O)(=O)c1ccc(-n2nc(-c3ccccc3)cc2-c2cc(O)ccc2O)cc1  100 µM

Tested on: not listed separately
Assay: Cytotoxicity against Homo sapiens (human) melanoma cellsafter 48 hr by SRB assay
Format: functional
Conditions: Melanoma cell

In order of rising GI50:
1. NS(=O)(=O)c1ccc(-n2nc(-c3ccc(Cl)cc3)cc2-c2cc(O)ccc2O)cc1  14.6 µM
2. CC(=O)NS(=O)(=O)c1ccc(-n2nc(-c3ccc(Cl)cc3)cc2-c2cc(O)ccc2O)cc1  36.2 µM
3. NS(=O)(=O)c1ccc(-n2nc(-c3ccccc3)cc2-c2cc(O)ccc2O)cc1  61.9 µM
4. CC(=O)NS(=O)(=O)c1ccc(-n2nc(-c3ccccc3)cc2-c2cc(O)ccc2O)cc1  84.8 µM

In order of rising TGI:
1. NS(=O)(=O)c1ccc(-n2nc(-c3ccc(Cl)cc3)cc2-c2cc(O)ccc2O)cc1  38.9 µM
2. CC(=O)NS(=O)(=O)c1ccc(-n2nc(-c3ccc(Cl)cc3)cc2-c2cc(O)ccc2O)cc1  60.1 µM
3. NS(=O)(=O)c1ccc(-n2nc(-c3ccccc3)cc2-c2cc(O)ccc2O)cc1  92 µM
4. CC(=O)NS(=O)(=O)c1ccc(-n2nc(-c3ccccc3)cc2-c2cc(O)ccc2O)cc1  100 µM

Tested on: MCF7
Assay: Cytotoxicity against Homo sapiens (human) MCF7 cells assessed as cellular growth after 48 hr by Alamar blue assay
Format: functional
Parameters: concentration or dose not given beside the values
Conditions: not given

Work on `NS(=O)(=O)c1ccc(-n2nc(-c3ccccc3)cc2-c2cc(O)ccc2O)cc1` yielded an Activity of under 32%.
`NS(=O)(=O)c1ccc(-n2nc(-c3ccc(Cl)cc3)cc2-c2cc(O)ccc2O)cc1` showed an Activity of under 32%.
With `CC(=O)NS(=O)(=O)c1ccc(-n2nc(-c3ccccc3)cc2-c2cc(O)ccc2O)cc1` the Activity was under 32%.
`CC(=O)NS(=O)(=O)c1ccc(-n2nc(-c3ccc(Cl)cc3)cc2-c2cc(O)ccc2O)cc1` gave an Activity of under 32%.

Tested on: SF-268
Assay: Cytotoxicity against Homo sapiens (human) SF268 cells assessed as cellular growth after 48 hr by Alamar blue assay
Format: functional
Parameters: concentration or dose not given beside the values
Conditions: not given

`NS(=O)(=O)c1ccc(-n2nc(-c3ccccc3)cc2-c2cc(O)ccc2O)cc1` showed an Activity of under 32%.
For `NS(=O)(=O)c1ccc(-n2nc(-c3ccc(Cl)cc3)cc2-c2cc(O)ccc2O)cc1`, the Activity was under 32%.
In the case of `CC(=O)NS(=O)(=O)c1ccc(-n2nc(-c3ccccc3)cc2-c2cc(O)ccc2O)cc1`, the Activity is reported as under 32%.
`CC(=O)NS(=O)(=O)c1ccc(-n2nc(-c3ccc(Cl)cc3)cc2-c2cc(O)ccc2O)cc1` gave an Activity of under 32%.

Tested on: not listed separately
Assay: Cytotoxicity against Homo sapiens (human) breast cancer cells after 48 hr by SRB assay
Format: functional
Conditions: Cancer cell lines

In order of falling GI50:
1. CC(=O)NS(=O)(=O)c1ccc(-n2nc(-c3ccccc3)cc2-c2cc(O)ccc2O)cc1  91.3 µM
2. NS(=O)(=O)c1ccc(-n2nc(-c3ccccc3)cc2-c2cc(O)ccc2O)cc1  83.9 µM
3. CC(=O)NS(=O)(=O)c1ccc(-n2nc(-c3ccc(Cl)cc3)cc2-c2cc(O)ccc2O)cc1  55.3 µM
4. NS(=O)(=O)c1ccc(-n2nc(-c3ccc(Cl)cc3)cc2-c2cc(O)ccc2O)cc1  16.7 µM

In order of falling TGI:
1. CC(=O)NS(=O)(=O)c1ccc(-n2nc(-c3ccccc3)cc2-c2cc(O)ccc2O)cc1  100 µM
2. NS(=O)(=O)c1ccc(-n2nc(-c3ccccc3)cc2-c2cc(O)ccc2O)cc1  96 µM
3. CC(=O)NS(=O)(=O)c1ccc(-n2nc(-c3ccc(Cl)cc3)cc2-c2cc(O)ccc2O)cc1  82.1 µM
4. NS(=O)(=O)c1ccc(-n2nc(-c3ccc(Cl)cc3)cc2-c2cc(O)ccc2O)cc1  54.5 µM

Same assay, conditions: Cancer cell lines, pooled result: one value given for 9 cell lines, strains, targets or settings

In order of rising LC50 (concentration giving 50% net cell kill):
1. NS(=O)(=O)c1ccc(-n2nc(-c3ccc(Cl)cc3)cc2-c2cc(O)ccc2O)cc1  76.6 µM
2. CC(=O)NS(=O)(=O)c1ccc(-n2nc(-c3ccc(Cl)cc3)cc2-c2cc(O)ccc2O)cc1  91.2 µM
3. NS(=O)(=O)c1ccc(-n2nc(-c3ccccc3)cc2-c2cc(O)ccc2O)cc1  100 µM
4. CC(=O)NS(=O)(=O)c1ccc(-n2nc(-c3ccccc3)cc2-c2cc(O)ccc2O)cc1  100 µM

Tested on: not listed separately
Assay: Cytotoxicity against Homo sapiens (human) renal cancer cells after 48 hr by SRB assay
Format: functional
Conditions: Cancer cell lines

In order of rising GI50:
1. NS(=O)(=O)c1ccc(-n2nc(-c3ccc(Cl)cc3)cc2-c2cc(O)ccc2O)cc1  12 µM
2. CC(=O)NS(=O)(=O)c1ccc(-n2nc(-c3ccc(Cl)cc3)cc2-c2cc(O)ccc2O)cc1  23.5 µM
3. CC(=O)NS(=O)(=O)c1ccc(-n2nc(-c3ccccc3)cc2-c2cc(O)ccc2O)cc1  78.1 µM
4. NS(=O)(=O)c1ccc(-n2nc(-c3ccccc3)cc2-c2cc(O)ccc2O)cc1  88.1 µM

In order of rising TGI:
1. NS(=O)(=O)c1ccc(-n2nc(-c3ccc(Cl)cc3)cc2-c2cc(O)ccc2O)cc1  35.4 µM
2. CC(=O)NS(=O)(=O)c1ccc(-n2nc(-c3ccc(Cl)cc3)cc2-c2cc(O)ccc2O)cc1  59.8 µM
3. NS(=O)(=O)c1ccc(-n2nc(-c3ccccc3)cc2-c2cc(O)ccc2O)cc1  99.3 µM
4. CC(=O)NS(=O)(=O)c1ccc(-n2nc(-c3ccccc3)cc2-c2cc(O)ccc2O)cc1  100 µM

Tested on: not listed separately
Assay: Cytotoxicity against Homo sapiens (human) ovarian cancer cells after 48 hr by SRB assay
Format: functional
Conditions: Cancer cell lines

In order of rising GI50:
1. NS(=O)(=O)c1ccc(-n2nc(-c3ccc(Cl)cc3)cc2-c2cc(O)ccc2O)cc1  14.7 µM
2. CC(=O)NS(=O)(=O)c1ccc(-n2nc(-c3ccc(Cl)cc3)cc2-c2cc(O)ccc2O)cc1  44.6 µM
3. NS(=O)(=O)c1ccc(-n2nc(-c3ccccc3)cc2-c2cc(O)ccc2O)cc1  81.3 µM
4. CC(=O)NS(=O)(=O)c1ccc(-n2nc(-c3ccccc3)cc2-c2cc(O)ccc2O)cc1  100 µM

In order of rising TGI:
1. NS(=O)(=O)c1ccc(-n2nc(-c3ccc(Cl)cc3)cc2-c2cc(O)ccc2O)cc1  50.9 µM
2. CC(=O)NS(=O)(=O)c1ccc(-n2nc(-c3ccc(Cl)cc3)cc2-c2cc(O)ccc2O)cc1  81.2 µM
3. NS(=O)(=O)c1ccc(-n2nc(-c3ccccc3)cc2-c2cc(O)ccc2O)cc1  98.2 µM
4. CC(=O)NS(=O)(=O)c1ccc(-n2nc(-c3ccccc3)cc2-c2cc(O)ccc2O)cc1  100 µM

Tested on: not listed separately
Assay: Cytotoxicity against Homo sapiens (human) non-small cell lung cancer cells after 48 hr by SRB assay
Format: functional
Conditions: Cancer cell lines

In order of rising GI50:
1. NS(=O)(=O)c1ccc(-n2nc(-c3ccc(Cl)cc3)cc2-c2cc(O)ccc2O)cc1  13 µM
2. CC(=O)NS(=O)(=O)c1ccc(-n2nc(-c3ccc(Cl)cc3)cc2-c2cc(O)ccc2O)cc1  36.2 µM
3. NS(=O)(=O)c1ccc(-n2nc(-c3ccccc3)cc2-c2cc(O)ccc2O)cc1  88.9 µM
4. CC(=O)NS(=O)(=O)c1ccc(-n2nc(-c3ccccc3)cc2-c2cc(O)ccc2O)cc1  93.9 µM

In order of falling TGI:
1. NS(=O)(=O)c1ccc(-n2nc(-c3ccccc3)cc2-c2cc(O)ccc2O)cc1  100 µM
2. CC(=O)NS(=O)(=O)c1ccc(-n2nc(-c3ccccc3)cc2-c2cc(O)ccc2O)cc1  100 µM
3. CC(=O)NS(=O)(=O)c1ccc(-n2nc(-c3ccc(Cl)cc3)cc2-c2cc(O)ccc2O)cc1  73.7 µM
4. NS(=O)(=O)c1ccc(-n2nc(-c3ccc(Cl)cc3)cc2-c2cc(O)ccc2O)cc1  39.1 µM

Tested on: NCI-H460
Assay: Cytotoxicity against Homo sapiens (human) NCI-H460 cells assessed as cellular growth after 48 hr by Alamar blue assay
Format: functional
Parameters: concentration or dose not given beside the values
Conditions: not given

In the case of `NS(=O)(=O)c1ccc(-n2nc(-c3ccccc3)cc2-c2cc(O)ccc2O)cc1`, the Activity is reported as under 32%.
Molecule `NS(=O)(=O)c1ccc(-n2nc(-c3ccc(Cl)cc3)cc2-c2cc(O)ccc2O)cc1` has an Activity of under 32%.
`CC(=O)NS(=O)(=O)c1ccc(-n2nc(-c3ccccc3)cc2-c2cc(O)ccc2O)cc1` showed an Activity of under 32%.
`CC(=O)NS(=O)(=O)c1ccc(-n2nc(-c3ccc(Cl)cc3)cc2-c2cc(O)ccc2O)cc1` gave an Activity of under 32%.

Tested on: not listed separately
Assay: Cytotoxicity against Homo sapiens (human) CNS cancer cells after 48 hr by SRB assay
Format: functional
Conditions: Cancer cell lines

In order of falling GI50:
1. CC(=O)NS(=O)(=O)c1ccc(-n2nc(-c3ccccc3)cc2-c2cc(O)ccc2O)cc1  90.4 µM
2. NS(=O)(=O)c1ccc(-n2nc(-c3ccccc3)cc2-c2cc(O)ccc2O)cc1  86.6 µM
3. CC(=O)NS(=O)(=O)c1ccc(-n2nc(-c3ccc(Cl)cc3)cc2-c2cc(O)ccc2O)cc1  38.5 µM
4. NS(=O)(=O)c1ccc(-n2nc(-c3ccc(Cl)cc3)cc2-c2cc(O)ccc2O)cc1  17.8 µM

In order of falling TGI:
1. NS(=O)(=O)c1ccc(-n2nc(-c3ccccc3)cc2-c2cc(O)ccc2O)cc1  100 µM
2. CC(=O)NS(=O)(=O)c1ccc(-n2nc(-c3ccccc3)cc2-c2cc(O)ccc2O)cc1  100 µM
3. CC(=O)NS(=O)(=O)c1ccc(-n2nc(-c3ccc(Cl)cc3)cc2-c2cc(O)ccc2O)cc1  93.9 µM
4. NS(=O)(=O)c1ccc(-n2nc(-c3ccc(Cl)cc3)cc2-c2cc(O)ccc2O)cc1  35.5 µM

Tested on: not listed separately
Assay: Cytotoxicity against Homo sapiens (human) prostate cancer cells after 48 hr by SRB assay
Format: functional
Conditions: Cancer cell lines

In order of falling GI50:
1. CC(=O)NS(=O)(=O)c1ccc(-n2nc(-c3ccccc3)cc2-c2cc(O)ccc2O)cc1  100 µM
2. NS(=O)(=O)c1ccc(-n2nc(-c3ccccc3)cc2-c2cc(O)ccc2O)cc1  77.6 µM
3. CC(=O)NS(=O)(=O)c1ccc(-n2nc(-c3ccc(Cl)cc3)cc2-c2cc(O)ccc2O)cc1  17.7 µM
4. NS(=O)(=O)c1ccc(-n2nc(-c3ccc(Cl)cc3)cc2-c2cc(O)ccc2O)cc1  13.4 µM

In order of rising TGI:
1. NS(=O)(=O)c1ccc(-n2nc(-c3ccc(Cl)cc3)cc2-c2cc(O)ccc2O)cc1  29.8 µM
2. CC(=O)NS(=O)(=O)c1ccc(-n2nc(-c3ccc(Cl)cc3)cc2-c2cc(O)ccc2O)cc1  38.8 µM
3. NS(=O)(=O)c1ccc(-n2nc(-c3ccccc3)cc2-c2cc(O)ccc2O)cc1  100 µM
4. CC(=O)NS(=O)(=O)c1ccc(-n2nc(-c3ccccc3)cc2-c2cc(O)ccc2O)cc1  100 µM
